The values that follow come from patent US10273453B2, “Method for stem cell differentiation in vivo by delivery of morphogenes with mesoporous silica and corresponding pharmaceutical active ingredients” (Nanologica AB, priority 2010, dated 2019).

This experiment deals with bNCSCs. The experiment in a line: in vitro differentiation assay of bNCSCs. Format: cell-based, mouse. The settings on record: bNCSC cultures. The method, then: bNCSCs were isolated in a semiclonal fashion from EGFP embryos on embryonic day (E)11, as described previously (Hjerling-Leffler J, Marmigére F, Heglind M, et al. The boundary cap: a source of neural crest stem cells that generate multiple sensory neuron subtypes. Development 2005; 132:2623-32). Briefly, the DRGs along with boundary caps were mechanically separated from the isolated spinal cord and mechano-enzymatically dissociated using Collagenase/Dispase (1 mg/ml) and DNase (0.5 mg/ml) for 30 minutes at room temperature. Cells were plated at 0.5-1×10^5 cells/cm^2 in N2 medium containing B27 (Gibco, Grand Island, N.Y., www.invitrogen.com) as well as EGF and basic fibroblast growth factor (R&D Systems, Minneapolis, www.rndsystems.com; 20 ng/ml, respectively). […]
The AMS were added to the cultures and the time-window for their presence before dissolving in the culture medium was established. We also analyzed their contact with the stem cells. […] After staining 10 photographs were taken from each slide and the ratios of neurons and glial cells were calculated in all types of experiments. We also calculated the neurite length per cell as a measure of the level of neuronal differentiation (Kozlova E N. Differentiation and migration of astrocytes in the spinal cord following dorsal root injury in the adult rat. Eur J Neurosci 2003; 17:782-90).

The structures appear in SMILES notation.

As for `CC1=C(/C=C/C(C)=C/C=C/C(C)=C/C(=O)O)C(C)(C)CCC1` [RA, retinoic acid], the “differentiation of neurons based on neurite lengths, increase compared to non-treated neurospheres” value is “up to 37%” and the “neuron/glia ratio, increase compared to neurospheres-alone” value is 3.4 times.
